Entries after “also recorded” stand apart in the source; their conditions may differ. Where two headings read alike, the source gives them in different places.
Experiments:
HCMV AD169 = experiment: virus yield reduction assay; format: cell-based, human cytomegalovirus
Experimental: Next, we tested the effects of selected compounds and of GCV as a control in viral yield assays, which measure the titer of virus progeny produced following infection at relatively high multiplicity. In these assays, the viral titer was measured at two different times points post-infection (p.i.): at 96 hrs, when the release of virus progeny is increasing, and at 120 hrs, when the titer of virus progeny after a single cycle of replication reaches peak levels (Stinski, 1983).
(§1) For yield reduction assays, HFF cells were plated at 2×10^4 cells per well in 96-well cluster dishes, incubated overnight, and infected with HCMV AD169 at a multiplicity of infection (MOI) of 1. After virus adsorption for 2 hr at 37° C., cells were washed and incubated with 200 μl of fresh media containing test compounds at increasing drug concentration. Plates were incubated for 3 or 5 days at 37° C. and subjected to one cycle of freezing and thawing, and titers were determined by transferring 100-μl aliquots from each of the wells to a fresh 96-well monolayer culture of HFF cells followed by 1:5 serial dilution across the plate. Cultures were incubated for 7 days, cells were stained, and the numbers of plaques were determined as described above.
as §1, with “The effect of the compounds was assessed in an assay of virus yield. In this assay, cells are infected at a relatively high multiplicity of infection (about one per cell) and then drug is added. The virus produced at the different times post infection is measured. 120 hrs. is about the peak titer. This assay was conducted as follows.” for “For yield reduction assays,”, “20,000” for “2×10^4”, “an MOI” for “a multiplicity of infection (MOI)”, “0.1, 0.3, 1, 3, 10, 30 μM” for “increasing”

UL54 = UL54 (Human cytomegalovirus, UniProt P08546); experiment: basal DNA polymerase activity of UL54 alone (filter-based assay); format: biochemical; details: 0, 4, 20, 40, 100 μM; 20 min at 37° C.; read-out: IC50 for inhibition of the activity of UL54 alone
Chain of UL54 (P08546 whole entry): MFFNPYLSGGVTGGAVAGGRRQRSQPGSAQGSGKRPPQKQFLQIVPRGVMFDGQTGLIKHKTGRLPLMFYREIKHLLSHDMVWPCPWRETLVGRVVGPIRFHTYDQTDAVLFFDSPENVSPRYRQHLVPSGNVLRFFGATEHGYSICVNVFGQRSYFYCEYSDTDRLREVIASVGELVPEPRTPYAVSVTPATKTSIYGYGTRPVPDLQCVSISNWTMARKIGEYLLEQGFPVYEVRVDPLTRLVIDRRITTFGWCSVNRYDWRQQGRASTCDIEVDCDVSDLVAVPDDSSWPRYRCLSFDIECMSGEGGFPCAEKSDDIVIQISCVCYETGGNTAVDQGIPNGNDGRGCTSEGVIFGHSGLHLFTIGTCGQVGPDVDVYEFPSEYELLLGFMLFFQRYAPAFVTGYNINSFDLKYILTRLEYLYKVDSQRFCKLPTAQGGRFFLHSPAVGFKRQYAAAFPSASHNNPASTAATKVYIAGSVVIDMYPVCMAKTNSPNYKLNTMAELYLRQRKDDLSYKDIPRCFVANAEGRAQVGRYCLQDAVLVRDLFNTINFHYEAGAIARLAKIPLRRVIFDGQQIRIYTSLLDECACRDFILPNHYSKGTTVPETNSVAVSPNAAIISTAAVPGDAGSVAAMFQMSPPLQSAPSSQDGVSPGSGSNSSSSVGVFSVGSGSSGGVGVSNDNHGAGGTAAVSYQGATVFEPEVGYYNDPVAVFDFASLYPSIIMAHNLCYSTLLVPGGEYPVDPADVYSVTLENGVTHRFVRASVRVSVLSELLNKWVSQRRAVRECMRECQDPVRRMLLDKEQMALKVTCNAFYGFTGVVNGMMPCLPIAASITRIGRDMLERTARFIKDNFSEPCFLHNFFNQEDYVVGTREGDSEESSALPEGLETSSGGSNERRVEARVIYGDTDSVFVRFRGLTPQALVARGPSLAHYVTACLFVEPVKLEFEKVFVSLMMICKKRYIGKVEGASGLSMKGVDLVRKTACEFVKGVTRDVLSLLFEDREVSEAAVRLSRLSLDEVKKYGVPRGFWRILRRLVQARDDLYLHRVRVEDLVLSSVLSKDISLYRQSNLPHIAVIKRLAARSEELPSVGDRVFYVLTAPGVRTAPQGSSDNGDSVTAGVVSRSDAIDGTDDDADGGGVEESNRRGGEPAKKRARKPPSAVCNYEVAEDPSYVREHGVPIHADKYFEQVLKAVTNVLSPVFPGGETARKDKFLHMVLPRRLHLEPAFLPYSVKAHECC
Experimental: The basal DNA polymerase activity of UL54 in the absence or in the presence of various amounts of each compound was measured by a filter-based assay as previously described (Loregian et al., 2003), but using 5 μl of in vitro-transcribed and -translated UL54 as in Loregian et al. (Loregian et al., 2004a). The reaction was initiated by addition of a reaction mixture containing 75 mM Tris-HCl (pH 8.0), 6.5 mM MgCl2, bovine serum albumin (400 μg/ml), 1.67 mM β-mercaptoethanol, 150 mM KCl, 1.6 μM [^3H]dTTP, poly(dA)-oligo(dT) (10 μg/ml; Amersham Pharmacia Biotech), and 0, 4, 20, 40, 100 μM of each compound. Samples were taken after 20 min of incubation at 37° C. and spotted onto DE81 filters (Whatman), previously soaked in 0.1 M EDTA and air dried. The filters were washed three times in 5% Na2HPO4, two times in water, and two times in methanol and then were dried. Radioactivity was measured with a scintillation counter.

UL54 plus GST-UL44ΔC290 = biological target: T1, UL54 plus GST-UL44ΔC290 (Human cytomegalovirus, UniProt P16790); experiment: long-chain DNA synthesis by UL54 in the presence of UL44; format: biochemical, HCMV; details: for inhibition of long-chain DNA synthesis by UL54 and UL44: dose-response
T1 construct: GST-UL44ΔC290 fusion protein, which contains the N-terminal 290 residues of HCMV UL44; made in house; host or cells: UL54: in vitro transcription/translation; GST-UL44ΔC290: E. coli BL21 (DE3)pLysS
T1 sequence (P16790 1-290, stated change not applied): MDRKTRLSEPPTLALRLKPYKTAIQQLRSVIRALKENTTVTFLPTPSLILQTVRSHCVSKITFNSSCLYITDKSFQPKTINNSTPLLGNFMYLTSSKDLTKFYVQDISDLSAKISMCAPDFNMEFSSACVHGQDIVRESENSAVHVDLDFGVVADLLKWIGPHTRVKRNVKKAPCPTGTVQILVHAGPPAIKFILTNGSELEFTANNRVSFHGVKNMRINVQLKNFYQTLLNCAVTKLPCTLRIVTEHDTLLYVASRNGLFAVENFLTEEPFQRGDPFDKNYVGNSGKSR
Experimental: To analyze the ability of the compounds to interfere with functional UL54-UL44 interactions, we tested their ability to inhibit long-chain DNA synthesis by UL54 in the presence of UL44 employing a poly(dA)-oligo(dT)12-18 template-primer.
DNA polymerase assays. The effects of compounds were tested in an assay that measures long-chain DNA synthesis as described in Loregian et al. (Loregian et al., 2004a), with 5 μl of in vitro-transcribed and -translated UL54 plus 800 fmol of GST-UL44ΔC290 in the absence or in the presence of various amounts of each compound.
The effect of the compounds was also tested in an assay that measures long chain (Lc) DNA synthesis as described in Loregian et al., J. Virol. […]

HFF cells = experiment: XTT cytotoxicity assay; format: cell-based, human
Experimental: (§2) Cytotoxicity assays. HFF cells were seeded at 2×10^4, 4×10^3, or 10^3 cells per well into 96-well plates and, after a 3-hr incubation to allow cell attachment, were treated for 24, 72, or 120 hr, respectively, with various concentrations of each compound in duplicate. Cell viability was then determined with an XTT assay (Roche Molecular Biochemicals) according to the manufacturer's protocol by using a Victor plate reader (Wallac).
(§3) The cytotoxicity of the compounds was measured in an XTT assay. XTT is a compound that is converted to a product that can be measured […], but only by viable cells. This assay is as follows. HFF (human foreskin fibroblasts) cells were seeded at different concentrations into 96-well plates and treated with various concentrations (from 0 to 200 μM) of each compound in duplicate for 24, 72 or 120 hr. Cell viability was then determined with an XTT assay (Roche Molecular Biochemicals) according to the manufacturer's protocol by using a Victor plate reader (Wallac).

[1] = biological target: T2, full-length UL54 / UL44 interaction (Human cytomegalovirus, UniProt P16790); experiment: UL54-UL44 interaction ELISA; format: binding, HCMV; details: concentrations up to 200 μM
T2 construct: made in house; host or cells: baculovirus expression; proteins provided by H. S. Marsden (Institute of Virology, Glasgow)
T2 sequence (P16790 whole entry): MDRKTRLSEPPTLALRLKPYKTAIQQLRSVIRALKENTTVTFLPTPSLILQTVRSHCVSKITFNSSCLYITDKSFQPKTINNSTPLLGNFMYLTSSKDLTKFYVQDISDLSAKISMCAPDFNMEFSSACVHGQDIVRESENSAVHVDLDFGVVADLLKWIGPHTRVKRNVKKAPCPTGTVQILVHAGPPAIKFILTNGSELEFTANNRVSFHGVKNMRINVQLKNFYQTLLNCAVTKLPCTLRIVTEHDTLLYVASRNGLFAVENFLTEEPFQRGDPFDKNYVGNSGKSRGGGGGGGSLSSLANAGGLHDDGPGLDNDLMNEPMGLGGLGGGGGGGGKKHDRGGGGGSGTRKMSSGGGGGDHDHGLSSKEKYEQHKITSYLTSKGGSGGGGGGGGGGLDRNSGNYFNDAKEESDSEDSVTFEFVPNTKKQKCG
Experimental: In this assay, binding between purified baculovirus-expressed UL54 and UL44, which was tagged with an EEF epitope, was detected using an antibody that recognizes the epitope tag (Loregian et al., 2003).
UL54-UL44 interaction ELISA. This assay was conducted as described in (Loregian et al., 2003), testing various concentrations of each compound. After final washes, the chromogenic substrate 2,2′-azino-bis(3-ethylbenzothiazoline-6-sulphonic acid (ABTS, Pierce) in citrate phosphate buffer (pH 4.0) containing 0.01% hydrogen peroxide was added and absorbance was read at 405 nm on a Victor plate reader (Wallac).
Another assay that was used to test the effect of the compounds on the interaction of UL44 and UL54 is an ELISA interaction assay, which measures the interaction of the two full length proteins with each other. This assay was conducted as described in Loregian et al., J. Virol. 2003, 77:8336-8344, testing different concentrations (0, 3.12, 6.25, 12.5, 25, 50, 100, 200 μM) of each compound.

HCMV strain AD169 = experiment: plaque reduction assay; format: cell-based, human cytomegalovirus; details: HFF cells; 0-30 μM
Experimental: Antiviral assays. Plaque reduction assays were performed essentially as follows: HFF (human foreskin fibroblast) cells were seeded at 2×10^5 cells per well in 24-well cluster dishes. The next day, cells were infected with HCMV (strain AD169) at 80 PFU per well in DMEM plus 5% fetal bovine serum (FBS) at 37° C. Two hours post-infection, the inocula were removed, cells were washed, and media containing various drug dilutions, 5% FBS, and 0.6% methylcellulose were added. All drug dilutions were tested at least in duplicate. After incubation at 37° C. for 10-11 days, cell monolayers were stained with crystal violet and plaques were counted under light microscopy.
The effect of the compounds was assessed in a plaque reduction assay that measures the number of plaques formed in the presence of varying concentrations of a drug, as follows. HFF were seeded at 2×10^5 cells per well in 24-well cluster dishes. The next day, they were infected with HCMV AD169 at 80 PFU per well in DMEM plus 5% FBS at 37° C. Two hr post-infection, the inocula were then removed, cells were washed, and media containing selected drug dilutions (0, 0.1, 0.3, 1, 3, 10, 30 μM), and 5% FBS and 0.6% methylcellulose were added. All drug dilutions were tested at least in duplicate. After incubation at 37° C. for 10-11 days, cell monolayers were stained with crystal violet and plaques were enumerated under light microscopy.

XTT cytotoxicity assay = format: cell-based, human; details: human
Experimental: as §2, §3

[2] = literature; cited from earlier work

SMILES | effect on virus yield / HCMV replication (HCMV AD169) | inhibition of long-chain DNA synthesis by UL54 and UL44 (UL54 plus GST-UL44ΔC290) | inhibition of the UL54-UL44 physical interaction [1] | IC50s in plaque reduction assay (HCMV strain AD169) | other results
CCOc1cc(C2C(C#N)=C(N)Oc3n[nH]c(-c4ccc(OC)cc4)c32)cc([N+](=O)[O-])c1O (stereo not drawn) [AL2] | little or no effect | little or no inhibition | – | – | IC50 (UL54): 95 µM
Nc1ccc(N)c2c1C(=O)c1c(O)ccc(O)c1C2=O [AL18] | relatively low IC50s; also recorded: submicromolar | relatively low IC50s | potent | relatively low IC50s | CC50 (HFF cells; 120 hrs, HFF cells): 200 µM; cytotoxicity (HFF cells; HFF cells, 24, 72 or 120 hr): relatively high CC50's; inhibition of long-chain DNA synthesis by UL54 and UL44 at one concentration (UL54 plus GST-UL44ΔC290; 40 μM): severely decreased formation of long DNA products
CNC(=S)NN=Cc1ccc(OC)c(Br)c1 [AL20] | relatively low IC50s | little or no inhibition | did not significantly inhibit | relatively low IC50s | cytotoxic concentration relative to antiviral concentration (HFF cells): 7-500 fold; cytotoxicity (HFF cells): relatively high CC50's
Nc1nc(O)c2ncn(COC(CO)CO)c2n1 [GCV, ganciclovir, reference compound] | – | – | – | – | CC50 (XTT cytotoxicity assay): ~200 µM
Nc1ccn(C[C@@H](CO)OCP(=O)(O)O)c(=O)n1 [cidofovir] | – | – | – | – | cytotoxic activities reported [2]: 360 µM

— patent US7893108B2, “Antiviral methods and compositions” (priority 2004, dated 2011)
